US20250345330A1 (Veradermics, Incorporated, priority 2024, published 2025)
Read-outs that look alike come from different tables or passages of the source.

Assays:
rats [1] = details: two-year, oral administration; cited from earlier work
Chinese hamster cells = details: long exposure times; cited from earlier work
rats [2] = details: cited from earlier work
[3] = primarily conjugation with glucuronic acid; cited from earlier work
[4] = cited from earlier work; for Cmax: tablets, healthy subjects
[5] = cited from earlier work
male adults with AGA = details: 5 mg oral at bedtime; 24 weeks; cited from earlier work
[6] = initially; chronic therapy; cited from earlier work
[7] = tested on: person with androgenetic alopecia; assay: Case studies: oral minoxidil in male patients with androgenetic alopecia (blood pressure, heart rate, hair growth); details: 1.25 mg QID

**Q.** Which Carcinogenicity findings (rats [1]) does the source give for Nc1cc(N2CCCCC2)nc(N)[n+]1[O-] [Minoxidil, minoxidil] here?
**A.** no positive findings

**Q.** What about the Cytogenetic assay result (Chinese hamster cells) of the same compound?
**A.** equivocal result

**Q.** What about the Fetal resorption (rats [2]) of the same compound?
**A.** not seen in rats

**Q.** And the “Fraction of oral minoxidil metabolized” value [3]?
**A.** About 90%

**Q.** What about the “Dose dependence of PK” value ([4]; 2.5 mg, 5 mg, or 10 mg oral, healthy volunteers) of the same compound?
**A.** dose-independent PK

**Q.** And the “Duration of plasma concentrations above 20 ng/mL” value ([4]; 5 mg dose level)?
**A.** around 1 h

**Q.** What about the “Duration of plasma concentrations above 20 ng/mL” value ([4]; 10 mg dose level) of the same compound?
**A.** around 2 h

**Q.** What about the Cmax ([4]; 2.5 mg) of the same compound?
**A.** 16.8 ng/mL

**Q.** And the Cmax ([4]; 5 mg)?
**A.** 37.2 ng/mL

**Q.** What about the Cmax ([4]; 10 mg) of the same compound?
**A.** 74.7 ng/mL

**Q.** What about the “Radioactivity found in feces” value ([5]; human, in vivo) of the same compound?
**A.** 3%

**Q.** And the “Radioactivity recovered from urine, in total” value ([5]; human, in vivo)?
**A.** 97%

**Q.** And the “Radiolabeled minoxidil and metabolites recovered from urine” value ([5]; within 24 h after oral administration)?
**A.** Over 80%

**Q.** And the Cardiovascular outcomes (male adults with AGA)?
**A.** No adverse cardiovascular outcomes were observed

**Q.** And the “Temporary decrease in hematocrit, hemoglobin, and erythrocyte count (hemodilution)” value [6]?
**A.** approximately 7%

**Q.** And the Adverse events [7]?
**A.** No unwanted hair growth or other adverse events
